Data published in patent US11912686B2 (Gilead Sciences, Inc., priority 2020, dated 2024).

Target: human LPAR1 (Homo sapiens (Human), UniProt Q92633)
Assay: LPAR1 intracellular calcium mobilization assay (antagonist mode, FLIPR)
Type: cell-based
Conditions: CHO-K1 EDG2 cells expressing human LPAR1, LPA 18:2 at EC80 (100 nM), test compound 0.5 nM to 10 μM

human LPAR1, sequence (Q92633 whole entry): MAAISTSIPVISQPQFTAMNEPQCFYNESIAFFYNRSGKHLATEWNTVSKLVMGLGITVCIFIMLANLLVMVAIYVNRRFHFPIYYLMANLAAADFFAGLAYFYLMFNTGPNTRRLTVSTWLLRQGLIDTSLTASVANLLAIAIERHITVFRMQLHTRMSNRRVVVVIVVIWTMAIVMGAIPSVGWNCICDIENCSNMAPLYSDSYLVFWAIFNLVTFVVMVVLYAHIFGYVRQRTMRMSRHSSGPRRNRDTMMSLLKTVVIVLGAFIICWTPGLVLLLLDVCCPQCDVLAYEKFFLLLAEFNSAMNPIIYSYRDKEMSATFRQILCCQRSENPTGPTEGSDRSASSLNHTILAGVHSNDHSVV

Structure (SMILES)	EC50 [nM]
C[C@@H](OC(=O)Nc1c(-c2ccc(NC(=O)C3CC4(CC(F)C4)C3)cn2)nnn1C)c1cccnc1Cl (stereo partly drawn) [Compound 81, (R)-1-(2-chloropyridin-3-yl)ethyl (4-(5-(6-fluorospiro[3.3]heptane-2-carboxamido)pyridin-2-yl)-1-methyl-1H-1,2,3-triazol-5-yl)carbamate]	22.8
C[C@@H](OC(=O)Nc1c(-c2ccc(NC(=O)C34CC(Cl)(C3)C4)cn2)nnn1C)c1cccnc1Cl [Compound 82, (R)-1-(2-chloropyridin-3-yl)ethyl (4-(5-(3-chlorobicyclo[1.1.1]pentane-1-carboxamido)pyridin-2-yl)-1-methyl-1H-1,2,3-triazol-5-yl)carbamate]	20.4
C[C@@H](OC(=O)Nc1c(-c2ccc(NC(=O)C3CC(=O)C3)cn2)nnn1C)c1cccnc1Cl [Compound 83, (R)-1-(2-chloropyridin-3-yl)ethyl (1-methyl-4-(5-(3-oxocyclobutane-1-carboxamido)pyridin-2-yl)-1H-1,2,3-triazol-5-yl)carbamate]	344
C[C@@H](OC(=O)Nc1c(-c2ccc(NC(=O)C3CC(C)(C)C3)cn2)nnn1C)c1cccnc1Cl [Compound 84, (R)-1-(2-chloropyridin-3-yl)ethyl (4-(5-(3,3-dimethylcyclobutane-l-carboxamido)pyridin-2-yl)-1-methyl-1H-1,2,3-triazol-5-yl)carbamate]	14.5
C[C@@H](OC(=O)Nc1c(-c2ccc(NC(=O)[C@H]3C[C@@]4(CC4(F)F)C3)cn2)nnn1C)c1cccnc1Cl [Compound 85, (R)-1-(2-chloropyridin-3-yl)ethyl (4-(5-((3R,5r)-1,1-difluorospiro[2.3]hexane-5-carboxamido)pyridin-2-yl)-1-methyl-1H-1,2,3-triazol-5-yl)carbamate]	11.2
C[C@@H](OC(=O)Nc1c(-c2ccc(NC(=O)[C@H]3C[C@]4(CC4(F)F)C3)cn2)nnn1C)c1cccnc1Cl [Compound 86, (R)-1-(2-chloropyridin-3-yl)ethyl (4-(5-((3S,5s)-1,1-difluorospiro[2.3]hexane-5-carboxamido)pyridin-2-yl)-1-methyl-1H-1,2,3-triazol-5-yl)carbamate]	16.6
C[C@@H](OC(=O)Nc1c(-c2ccc(NC(=O)C3(C#N)CC4(CC4)C3)cn2)nnn1C)c1cccnc1Cl [Compound 87, (R)-1-(2-chloropyridin-3-yl)ethyl (4-(5-(5-cyanospiro[2.3]hexane-5-carboxamido)pyridin-2-yl)-1-methyl-1H-1,2,3-triazol-5-yl)carbamate]	16.1
C[C@@H](OC(=O)Nc1c(-c2ccc(NC(=O)C3CC4(CC4)C3)cn2)nnn1C)c1cccnc1Cl [Compound 88, (R)-1-(2-chloropyridin-3-yl)ethyl (1-methyl-4-(5-(spiro[2.3]hexane-5-carboxamido)pyridin-2-yl)-1H-1,2,3-triazol-5-yl)carbamate]	8.6
C[C@@H](OC(=O)Nc1c(-c2ccc(NC(=O)C3(C#N)CC34CCCC4)cn2)nnn1C)c1cccnc1Cl (stereo partly drawn) [Compound 89, (R)-1-(2-chloropyridin-3-yl)ethyl (4-(5-(1-cyanospiro[2.4]heptane-1-carboxamido)pyridin-2-yl)-1-methyl-1H-1,2,3-triazol-5-yl)carbamate]	312
C[C@@H](OC(=O)Nc1c(-c2ccc(NC(=O)[C@@H]3CCC3(F)F)cn2)nnn1C)c1cccnc1Cl [Compound 90, (R)-1-(2-chloropyridin-3-yl)ethyl (4-(5-((S)-2,2-difluorocyclobutane-1-carboxamido)pyridin-2-yl)-1-methyl-1H-1,2,3-triazol-5-yl)carbamate]	73.5
C[C@@H](OC(=O)Nc1c(-c2ccc(NC(=O)[C@H]3CCC3(F)F)cn2)nnn1C)c1cccnc1Cl [Compound 91, (R)-1-(2-chloropyridin-3-yl)ethyl (4-(5-((R)-2,2-difluorocyclobutane-1-carboxamido)pyridin-2-yl)-1-methyl-1H-1,2,3-triazol-5-yl)carbamate]	187
C[C@@H](OC(=O)Nc1c(-c2ccc(NC(=O)C3(C(N)=O)CC3)cn2)nnn1C)c1cccnc1Cl [Compound 92, (R)-1-(2-chloropyridin-3-yl)ethyl (4-(5-(1-carbamoylcyclopropane-1-carboxamido)pyridin-2-yl)-1-methyl-1H-1,2,3-triazol-5-yl)carbamate]	601
C[C@@H](OC(=O)Nc1c(-c2ccc(NC(=O)C3(C#N)COC3)cn2)nnn1C)c1cccnc1Cl [Compound 93, (R)-1-(2-chloropyridin-3-yl)ethyl (4-(5-(3-cyanooxetane-3-carboxamido)pyridin-2-yl)-1-methyl-1H-1,2,3-triazol-5-yl)carbamate]	133
C[C@@H](OC(=O)Nc1c(-c2ccc(NC(=O)C3(c4cccnc4)CC3)cn2)nnn1C)c1cccnc1Cl [Compound 94, (R)-1-(2-chloropyridin-3-yl)ethyl (1-methyl-4-(5-(1-(pyridin-3-yl)cyclopropane-1-carboxamido)pyridin-2-yl)-1H-1,2,3-triazol-5-yl)carbamate]	4820
C[C@@H](OC(=O)Nc1c(-c2ccc(NC(=O)C3(C#N)CCOCC3)cn2)nnn1C)c1cccnc1Cl [Compound 95, (R)-1-(2-chloropyridin-3-yl)ethyl (4-(5-(4-cyanotetrahydro-2H-pyran-4-carboxamido)pyridin-2-yl)-1-methyl-1H-1,2,3-triazol-5-yl)carbamate]	309
CCC1(C(=O)Nc2ccc(-c3nnn(C)c3NC(=O)O[C@H](C)c3cccnc3Cl)nc2)COC1 [Compound 96, (R)-1-(2-chloropyridin-3-yl)ethyl (4-(5-(3-ethyloxetane-3-carboxamido)pyridin-2-yl)-1-methyl-1H-1,2,3-triazol-5-yl)carbamate]	2330
C[C@@H](OC(=O)Nc1c(-c2ccc(NC(=O)C3(C)COC3)cn2)nnn1C)c1cccnc1Cl [Compound 97, (R)-1-(2-chloropyridin-3-yl)ethyl (1-methyl-4-(5-(3-methyloxetane-3-carboxamido)pyridin-2-yl)-1H-1,2,3-triazol-5-yl)carbamate]	395
C[C@@H](OC(=O)Nc1c(-c2ccc(NC(=O)c3cccc(C#N)n3)cn2)nnn1C)c1cccnc1Cl [Compound 98, (R)-1-(2-chloropyridin-3-yl)ethyl (4-(5-(6-cyanopicolinamido)pyridin-2-yl)-1-methyl-1H-1,2,3-triazol-5-yl)carbamate]	720
C[C@@H](OC(=O)Nc1c(-c2ccc(NC(=O)c3ccc(C#N)nc3)cn2)nnn1C)c1cccnc1Cl [Compound 99, (R)-1-(2-chloropyridin-3-yl)ethyl (4-(5-(6-cyanonicotinamido)pyridin-2-yl)-1-methyl-1H-1,2,3-triazol-5-yl)carbamate]	53.9
C[C@@H](OC(=O)Nc1c(-c2ccc(NC(=O)c3ccnc(C#N)c3)cn2)nnn1C)c1cccnc1Cl [Compound 100, (R)-1-(2-chloropyridin-3-yl)ethyl (4-(5-(2-cyanoisonicotinamido)pyridin-2-yl)-1-methyl-1H-1,2,3-triazol-5-yl)carbamate]	90.8
Cc1cnccc1C(=O)Nc1ccc(-c2nnn(C)c2NC(=O)O[C@H](C)c2cccnc2Cl)nc1 [Compound 101, (R)-1-(2-chloropyridin-3-yl)ethyl (1-methyl-4-(5-(3-methylisonicotinamido)pyridin-2-yl)-1H-1,2,3-triazol-5-yl)carbamate]	1040
Cc1cc(C(=O)Nc2ccc(-c3nnn(C)c3NC(=O)O[C@H](C)c3cccnc3Cl)nc2)ccn1 [Compound 102, (R)-1-(2-chloropyridin-3-yl)ethyl (1-methyl-4-(5-(2-methylisonicotinamido)pyridin-2-yl)-1H-1,2,3-triazol-5-yl)carbamate]	85.6
C[C@@H](OC(=O)Nc1c(-c2ccc(NC(=O)c3ccnc(Cl)c3)cn2)nnn1C)c1cccnc1Cl [Compound 103, (R)-1-(2-chloropyridin-3-yl)ethyl (4-(5-(2-chloroisonicotinamido)pyridin-2-yl)-1-methyl-1H-1,2,3-triazol-5-yl)carbamate]	16.6
C[C@@H](OC(=O)Nc1c(-c2ccc(NC(=O)C34COC(C3)C4)cn2)nnn1C)c1cccnc1Cl [Compound 104, (R)-1-(2-chloropyridin-3-yl)ethyl (4-(5-(2-oxabicyclo[2.1.1]hexane-4-carboxamido)pyridin-2-yl)-1-methyl-1H-1,2,3-triazol-5-yl)carbamate]	560
C[C@@H](OC(=O)Nc1c(-c2ccc(NC(=O)C34CC(CO3)C4)cn2)nnn1C)c1cccnc1Cl [Compound 105, (R)-1-(2-chloropyridin-3-yl)ethyl (4-(5-(2-oxabicyclo[2.1.1]hexane-1-carboxamido)pyridin-2-yl)-1-methyl-1H-1,2,3-triazol-5-yl)carbamate]	1580
C[C@@H](OC(=O)Nc1c(-c2ccc(NC(=O)c3c[nH]cn3)cn2)nnn1C)c1cccnc1Cl [Compound 106, (R)-1-(2-chloropyridin-3-yl)ethyl (4-(5-(1H-imidazole-4-carboxamido)pyridin-2-yl)-1-methyl-1H-1,2,3-triazol-5-yl)carbamate]	1760
C[C@@H](OC(=O)Nc1c(-c2ccc(NC(=O)CC(F)F)cn2)nnn1C)c1cccnc1Cl [Compound 107, (R)-1-(2-chloropyridin-3-yl)ethyl (4-(5-(3,3-difluoropropanamido)pyridin-2-yl)-1-methyl-1H-1,2,3-triazol-5-yl)carbamate]	10000
C[C@@H](OC(=O)Nc1c(-c2ccc(NC(=O)C3CC(C)(O)C3)cn2)nnn1C)c1cccnc1Cl (stereo partly drawn) [Compound 108, (R)-1-(2-chloropyridin-3-yl)ethyl (4-(5-(3-hydroxy-3-methylcyclobutane-1-carboxamido)pyridin-2-yl)-1-methyl-1H-1,2,3-triazol-5-yl)carbamate]	420
C[C@@H](OC(=O)Nc1c(-c2ccc(NC(=O)C3CC(C)(O)C3)cn2)nnn1C)c1cccnc1Cl (stereo partly drawn) [Compound 109, (R)-1-(2-chloropyridin-3-yl)ethyl (4-(5-(3-hydroxy-3-methylcyclobutane-1-carboxamido)pyridin-2-yl)-1-methyl-1H-1,2,3-triazol-5-yl)carbamate]	1710
